Columns and labels:
Experiment in all cases: relative viability (nuclei count vs DMSO), 5 days (fraction); higher = more cells survive
NCI-H1755 = test system: NCI-H1755
Outline: (§1)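 After 5 days of treatment, lung cancer cells in 1536-well plates were fixed and stained in a single step (final 0.05% Triton X-100, 1% formaldehyde, 1 ug/ml Hoechst) and their nuclei counted on 4× images. Treatment had been applied by pin tool the day after seeding as one drug alone or as a fixed anchor-drug dose with five library-drug doses (not always all listed) in √10 steps. Relative viability is the nuclei count of treated wells divided by that of vehicle wells, and values are medians of duplicate plates.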

SK-LU-1 = test system: SK-LU-1
Outline: as §1

PC-14 = test system: PC-14
Outline: as §1

H3255 = test system: H3255
Outline: as §1

HCC-15 = test system: HCC-15
Outline: as §1

NCI-H1437 = test system: NCI-H1437
Outline: as §1

NCI-H1915 = test system: NCI-H1915
Outline: as §1

NCI-H2405 = test system: NCI-H2405
Outline: as §1

NCI-H2023 = test system: NCI-H2023
Outline: as §1

NCI-H460 = test system: NCI-H460
Outline: as §1

UMC-11 = test system: UMC-11
Outline: as §1

NCI-H3122 = test system: NCI-H3122
Outline: as §1

A-427 = test system: A-427
Outline: as §1

NCI-H1793 = test system: NCI-H1793
Outline: as §1

LXF-289 = test system: LXF-289
Outline: as §1

HARA = test system: HARA
Outline: as §1

NCI-H596 = test system: NCI-H596
Outline: as §1

NCI-H2009 = test system: NCI-H2009
Outline: as §1

PC-3 [JPC-3] = test system: PC-3 [JPC-3]
Outline: as §1

NCI-H441 = test system: NCI-H441
Outline: as §1

NCI-H650 = test system: NCI-H650
Outline: as §1

NCI-H1975 = test system: NCI-H1975
Outline: as §1

Q: Which results are given for O=c1[nH]c2ccccc2n1C1CCN(CCCC(c2ccc(F)cc2)c2ccc(F)cc2)CC1 [Pimozide] + CCNC(=O)c1noc(-c2cc(C(C)C)c(O)cc2O)c1-c1ccc(CN2CCOCC2)cc1 [Luminespib] (partner 0.01 µM)?
A: relative viability (NCI-H1755; first compound 0.08 µM): 0.433; relative viability (NCI-H1755; first compound 0.253 µM): 0.418; relative viability (NCI-H1755; first compound 0.8 µM): 0.373; relative viability (NCI-H1755; first compound 2.53 µM): 0.526; relative viability (NCI-H1755; first compound 8 µM): 0.476; relative viability (SK-LU-1; first compound 0.08 µM): 0.219; relative viability (SK-LU-1; first compound 0.253 µM): 0.197; relative viability (SK-LU-1; first compound 0.8 µM): 0.206; relative viability (SK-LU-1; first compound 2.53 µM): 0.183; relative viability (SK-LU-1; first compound 8 µM): 0.206; relative viability (PC-14; first compound 0.253 µM): 0.181; relative viability (PC-14; first compound 2.53 µM): 0.15; relative viability (PC-14; first compound 8 µM): 0.111; relative viability (H3255; first compound 0.253 µM): 0.926; relative viability (H3255; first compound 0.8 µM): 0.684; relative viability (H3255; first compound 2.53 µM): 0.883; relative viability (H3255; first compound 8 µM): 0.799; relative viability (HCC-15; first compound 0.08 µM): 0.308; relative viability (HCC-15; first compound 0.253 µM): 0.288; relative viability (HCC-15; first compound 0.8 µM): 0.257; relative viability (HCC-15; first compound 2.53 µM): 0.175; relative viability (HCC-15; first compound 8 µM): 0.308; relative viability (NCI-H1437; first compound 0.08 µM): 1.13; relative viability (NCI-H1437; first compound 0.253 µM): 1.09; relative viability (NCI-H1437; first compound 0.8 µM): 1.12; relative viability (NCI-H1437; first compound 2.53 µM): 0.988; relative viability (NCI-H1437; first compound 8 µM): 0.922; relative viability (NCI-H1915; first compound 0.08 µM): 0.807; relative viability (NCI-H1915; first compound 0.253 µM): 0.8; relative viability (NCI-H1915; first compound 0.8 µM): 0.714; relative viability (NCI-H1915; first compound 2.53 µM): 0.666; relative viability (NCI-H1915; first compound 8 µM): 0.782; relative viability (NCI-H2405; first compound 0.08 µM): 0.654; relative viability (NCI-H2405; first compound 0.253 µM): 0.717; relative viability (NCI-H2405; first compound 0.8 µM): 0.618; relative viability (NCI-H2405; first compound 2.53 µM): 0.559; relative viability (NCI-H2405; first compound 8 µM): 0.315; relative viability (NCI-H2023; first compound 0.08 µM): 0.755; relative viability (NCI-H2023; first compound 0.253 µM): 0.707; relative viability (NCI-H2023; first compound 0.8 µM): 0.709; relative viability (NCI-H2023; first compound 2.53 µM): 0.507; relative viability (NCI-H2023; first compound 8 µM): 0.596; relative viability (NCI-H460; first compound 0.08 µM): 0.0367; relative viability (NCI-H460; first compound 0.253 µM): 0.0252; relative viability (NCI-H460; first compound 0.8 µM): 0.0202; relative viability (NCI-H460; first compound 2.53 µM): 0.0243; relative viability (NCI-H460; first compound 8 µM): 0.0256; relative viability (UMC-11; first compound 0.08 µM): 1.2; relative viability (UMC-11; first compound 0.253 µM): 1.03; relative viability (UMC-11; first compound 0.8 µM): 0.976; relative viability (UMC-11; first compound 2.53 µM): 1.11; relative viability (UMC-11; first compound 8 µM): 1.18; relative viability (NCI-H3122; first compound 0.08 µM): 0.109; relative viability (NCI-H3122; first compound 0.253 µM): 0.0961; relative viability (NCI-H3122; first compound 0.8 µM): 0.105; relative viability (NCI-H3122; first compound 2.53 µM): 0.0832; relative viability (NCI-H3122; first compound 8 µM): 0.0656; relative viability (A-427; first compound 0.08 µM): 0.703; relative viability (A-427; first compound 0.253 µM): 0.793; relative viability (A-427; first compound 0.8 µM): 0.936; relative viability (A-427; first compound 2.53 µM): 0.857; relative viability (A-427; first compound 8 µM): 0.768; relative viability (NCI-H1793; first compound 0.253 µM): 0.166; relative viability (NCI-H1793; first compound 0.8 µM): 0.207; relative viability (NCI-H1793; first compound 2.53 µM): 0.169; relative viability (NCI-H1793; first compound 8 µM): 0.149; relative viability (LXF-289; first compound 0.08 µM): 0.642; relative viability (LXF-289; first compound 0.253 µM): 0.634; relative viability (LXF-289; first compound 0.8 µM): 0.702; relative viability (LXF-289; first compound 2.53 µM): 0.664; relative viability (LXF-289; first compound 8 µM): 0.632; relative viability (HARA; first compound 0.253 µM): 0.949; relative viability (HARA; first compound 0.8 µM): 0.684; relative viability (HARA; first compound 2.53 µM): 0.568; relative viability (HARA; first compound 8 µM): 0.795; relative viability (NCI-H596; first compound 0.08 µM): 0.97; relative viability (NCI-H596; first compound 0.253 µM): 1.11; relative viability (NCI-H596; first compound 0.8 µM): 1.11; relative viability (NCI-H596; first compound 2.53 µM): 0.776; relative viability (NCI-H596; first compound 8 µM): 0.847; relative viability (NCI-H2009; first compound 0.08 µM): 0.984; relative viability (NCI-H2009; first compound 0.253 µM): 1.01; relative viability (NCI-H2009; first compound 0.8 µM): 0.981; relative viability (NCI-H2009; first compound 2.53 µM): 1.05; relative viability (NCI-H2009; first compound 8 µM): 0.842; relative viability (PC-3 [JPC-3]; first compound 0.08 µM): 0.402; relative viability (PC-3 [JPC-3]; first compound 0.253 µM): 0.714; relative viability (PC-3 [JPC-3]; first compound 0.8 µM): 0.699; relative viability (PC-3 [JPC-3]; first compound 2.53 µM): 0.723; relative viability (PC-3 [JPC-3]; first compound 8 µM): 0.599; relative viability (NCI-H441; first compound 0.08 µM): 0.413; relative viability (NCI-H441; first compound 0.253 µM): 0.404; relative viability (NCI-H441; first compound 0.8 µM): 0.332; relative viability (NCI-H441; first compound 2.53 µM): 0.311; relative viability (NCI-H441; first compound 8 µM): 0.3; relative viability (NCI-H650; first compound 0.08 µM): 0.765; relative viability (NCI-H650; first compound 0.253 µM): 0.76; relative viability (NCI-H650; first compound 0.8 µM): 0.838; relative viability (NCI-H650; first compound 2.53 µM): 0.786; relative viability (NCI-H650; first compound 8 µM): 0.765; relative viability (NCI-H1975; first compound 0.08 µM): 0.213; relative viability (NCI-H1975; first compound 0.253 µM): 0.337; relative viability (NCI-H1975; first compound 0.8 µM): 0.384; relative viability (NCI-H1975; first compound 2.53 µM): 0.239; relative viability (NCI-H1975; first compound 8 µM): 0.18

Reference: the supplement of paper PMC10307832
